In patent US10159249B2 (BAYER CROPSCIENCE AKTIENGESELLSCHAFT, priority 2013, dated 2018):
Like-named read-outs stand apart in the source and are kept apart here.

Assays:
[1] = tested on: transgenic soybean T1 plants expressing PfHPPD-Evo33; format: in vivo; details: for number of events, herbicide tolerance class 0 (41%-100% damaged leaf area) / number of events, herbicide tolerance class 1 (16%-40% damaged leaf area) / number of events, herbicide tolerance class 2 (6%-15% damaged leaf area) / number of events, herbicide tolerance class 3 (0%-5% damaged leaf area): soybean PfHPPD-Evo33, scored after 21 days
[2] = tested on: transgenic soybean T1 plants expressing PfHPPD-Evo41; format: in vivo; details: for number of events, herbicide tolerance class 0 (41%-100% damaged leaf area) / number of events, herbicide tolerance class 1 (16%-40% damaged leaf area) / number of events, herbicide tolerance class 2 (6%-15% damaged leaf area) / number of events, herbicide tolerance class 3 (0%-5% damaged leaf area): soybean PfHPPD-Evo41, scored after 21 days
FMP27 (SEQ ID No 17) = FMP27 (SEQ ID No 17) (Kordia algicida, UniProt A9DQF2); test: HPPD activity in presence of inhibitor, HGD assay; format: biochemical
Method: (§1) With the HGD assay HPPD activity was measured at room temperature by adding appropriate amounts of HPPD to a solution of 200 mM Tris-HCl pH 7.6, 10 mM ascorbate, 20 μM FeSO4, 650 units of catalase, 8 μg HGA dioxygenase (HGA: homogentisate) and 600 μM HPP in a total volume of 1 ml. Initial reaction rates were determined from the increase in absorbance at 318 nm due to the formation of maleylacetoacetate (ε318=11,900 M-1 cm-1).
(§2) In cases, the symbol “>” is used this means that the value was far higher than the one indicated but could not be precisely calculated within in the range of concentration of inhibitor tested.
(§3) In the 1st column of Table 1, the HPPD employed in the assay is named and in the 2nd column of Table 1, the corresponding SEQ ID No of present invention is disclosed.

FMP37 (SEQ ID No 9) = FMP37 (SEQ ID No 9) (Blepharisma japonicum, UniProt A8R3H6); test: HPPD activity in presence of inhibitor, HGD assay; format: biochemical
Method: as §1, §2, §3

[3] = target: Avena sativa Δ A109 (SEQ ID No 43) (Avena sativa, UniProt A0ACD5V6K6, DEL109-109); test: HPPD activity in presence of inhibitor, HGD assay; format: biochemical
Method: as §1, §2, §3

Amaranthus retroflexus = details: (A) 50 g ai/ha; application at 6 leaf stage; assessment 14 days after application
[4] = tested on: wild type soybean plants (Merlin and Thorne); format: in vivo; details: 21 days after spraying
[5] = target: PfHPPD-Evo41 (SEQ ID No 29) (Pseudomonas sp., UniProt P80064, A172V/A339Q/A53E/D148E/D45N/E105D/E287Q/E300V/E334P/F143Y/G286D/G335W/H150N/H254A/H63N/I158V/I187A/I249V/K338A/K92N/L18F/N24G/N280D/S245T/S257K/S301E/T205S/V65I); test: biochemical; parameters: species or system Pseudomonas fluorescens
wild type soybean Merlin = format: in vivo; details: scored after 21 days
[6] = target: PfHPPD-Evo40 (SEQ ID No 27) (Pseudomonas sp., UniProt P80064, A172V/A339E/A53E/D148E/D45N/E105D/E287Q/E300V/E334P/F143Y/G286D/G335S/H150N/H254A/H63N/I158V/I187A/I249V/K92N/L18F/N24G/N280D/S245T/S257K/S301E/T205S/V65I); test: biochemical; parameters: species or system Pseudomonas fluorescens
[7] = target: PfHPPD-Evo33 (SEQ ID No 25) (Pseudomonas sp., UniProt P80064, A172V/A53E/D148E/D45N/E105D/E287Q/E300V/E334P/F143Y/G286D/G335W/H150N/H254A/H63N/I158V/I187A/I249V/K92N/L18F/N24G/N280D/S245T/S257K/S301E/T205S/V65I); test: biochemical; parameters: species or system Pseudomonas fluorescens
[8] = soybean Merlin (wt), 6.25 g AI/ha

Chain of PfHPPD-Evo33 (SEQ ID No 25) (P80064 1-354 with tags or gaps with the stated changes limits assumed): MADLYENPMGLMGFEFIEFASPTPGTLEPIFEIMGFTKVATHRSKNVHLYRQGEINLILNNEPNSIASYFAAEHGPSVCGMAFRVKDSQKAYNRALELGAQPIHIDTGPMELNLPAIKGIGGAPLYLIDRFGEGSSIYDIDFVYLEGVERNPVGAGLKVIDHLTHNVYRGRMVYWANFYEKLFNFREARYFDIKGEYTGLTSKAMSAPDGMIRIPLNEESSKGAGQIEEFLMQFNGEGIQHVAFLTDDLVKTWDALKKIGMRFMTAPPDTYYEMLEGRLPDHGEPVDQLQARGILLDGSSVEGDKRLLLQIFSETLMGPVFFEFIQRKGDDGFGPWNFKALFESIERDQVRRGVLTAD
Chain of FMP27 (SEQ ID No 17) (A9DQF2 1-387): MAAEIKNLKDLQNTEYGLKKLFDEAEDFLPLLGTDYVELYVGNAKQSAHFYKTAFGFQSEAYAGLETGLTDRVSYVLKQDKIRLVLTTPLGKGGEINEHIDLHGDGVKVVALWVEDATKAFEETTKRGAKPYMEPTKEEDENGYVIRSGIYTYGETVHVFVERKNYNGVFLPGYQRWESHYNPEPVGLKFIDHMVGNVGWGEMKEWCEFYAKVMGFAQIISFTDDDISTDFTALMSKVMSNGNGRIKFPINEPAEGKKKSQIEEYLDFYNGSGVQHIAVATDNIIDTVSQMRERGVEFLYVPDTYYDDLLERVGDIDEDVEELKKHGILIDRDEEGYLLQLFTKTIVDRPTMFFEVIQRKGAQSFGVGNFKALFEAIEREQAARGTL
Chain of Avena sativa Δ A109 (SEQ ID No 43) (A0ACD5V6K6 entry or part of it DEL109-109): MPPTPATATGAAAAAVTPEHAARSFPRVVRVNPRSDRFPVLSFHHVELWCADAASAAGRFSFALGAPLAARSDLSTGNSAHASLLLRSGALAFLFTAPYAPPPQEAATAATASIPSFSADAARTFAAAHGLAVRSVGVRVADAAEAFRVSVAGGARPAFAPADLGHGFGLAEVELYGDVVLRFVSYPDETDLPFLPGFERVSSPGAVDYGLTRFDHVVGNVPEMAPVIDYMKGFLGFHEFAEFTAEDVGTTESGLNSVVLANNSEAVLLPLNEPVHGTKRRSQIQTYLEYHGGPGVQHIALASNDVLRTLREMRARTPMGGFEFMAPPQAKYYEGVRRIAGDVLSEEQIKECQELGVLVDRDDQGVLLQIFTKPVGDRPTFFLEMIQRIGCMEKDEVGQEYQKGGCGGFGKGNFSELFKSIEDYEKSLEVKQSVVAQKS
Chain of FMP37 (SEQ ID No 9) (A8R3H6 1-382): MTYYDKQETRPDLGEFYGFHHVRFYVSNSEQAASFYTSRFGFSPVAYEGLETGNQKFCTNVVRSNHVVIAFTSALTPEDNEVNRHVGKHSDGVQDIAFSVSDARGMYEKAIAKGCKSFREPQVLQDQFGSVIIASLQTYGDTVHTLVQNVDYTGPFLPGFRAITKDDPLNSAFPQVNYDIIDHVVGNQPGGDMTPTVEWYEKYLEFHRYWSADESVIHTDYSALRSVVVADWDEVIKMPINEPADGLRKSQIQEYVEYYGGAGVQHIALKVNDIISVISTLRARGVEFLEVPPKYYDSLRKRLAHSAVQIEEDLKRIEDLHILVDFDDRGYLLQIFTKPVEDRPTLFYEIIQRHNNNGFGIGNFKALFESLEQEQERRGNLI
Chain of PfHPPD-Evo41 (SEQ ID No 29) (P80064 1-354 with tags or gaps with the stated changes limits assumed): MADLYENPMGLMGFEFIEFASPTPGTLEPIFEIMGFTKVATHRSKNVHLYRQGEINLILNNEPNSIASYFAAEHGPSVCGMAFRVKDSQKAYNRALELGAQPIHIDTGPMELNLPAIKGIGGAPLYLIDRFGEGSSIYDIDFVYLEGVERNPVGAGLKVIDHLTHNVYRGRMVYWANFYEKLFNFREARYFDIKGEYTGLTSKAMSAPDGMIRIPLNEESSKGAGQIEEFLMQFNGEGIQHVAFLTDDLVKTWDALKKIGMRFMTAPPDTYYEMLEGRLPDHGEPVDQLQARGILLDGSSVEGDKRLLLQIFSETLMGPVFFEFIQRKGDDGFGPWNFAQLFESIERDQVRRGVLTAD
Chain of PfHPPD-Evo40 (SEQ ID No 27) (P80064 1-354 with tags or gaps with the stated changes limits assumed): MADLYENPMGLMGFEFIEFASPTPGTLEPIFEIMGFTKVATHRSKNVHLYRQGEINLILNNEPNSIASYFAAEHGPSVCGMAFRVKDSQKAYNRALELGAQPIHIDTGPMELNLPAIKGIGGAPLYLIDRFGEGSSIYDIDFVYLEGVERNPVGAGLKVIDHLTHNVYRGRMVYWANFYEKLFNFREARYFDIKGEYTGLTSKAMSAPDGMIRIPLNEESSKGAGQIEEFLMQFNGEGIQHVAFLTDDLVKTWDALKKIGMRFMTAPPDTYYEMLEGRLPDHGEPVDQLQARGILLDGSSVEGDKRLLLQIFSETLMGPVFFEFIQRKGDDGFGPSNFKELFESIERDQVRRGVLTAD

In the case of `CSc1c(C(F)(F)F)ccc(C(=O)Nc2nnnn2C)c1Cl`, the “herbicide tolerance” value ([1]; most soybean T1 plants expressing PfHPPD-Evo33, 25 g AI/ha) is reported as “high tolerance”, the “number of events, herbicide tolerance class 0 (41%-100% damaged leaf area)” value (shortened to “number of events … (41%-100% damaged leaf area)”) ([1]; 6.25 g AI/ha) is reported as 1 and the “number of events, herbicide tolerance class 1 (16%-40% damaged leaf area)” value (shortened to “number of events … (16%-40% damaged leaf area)”) ([1]; 6.25 g AI/ha) is reported as 0. For the same compound, the “number of events, herbicide tolerance class 2 (6%-15% damaged leaf area)” value (from here on “number of events … (6%-15% damaged leaf area)”) ([1]; 6.25 g AI/ha) was 0, the “number of events, herbicide tolerance class 3 (0%-5% damaged leaf area)” value (“number of events … (0%-5% damaged leaf area)” below) ([1]; 6.25 g AI/ha) was 11 and the “number of events … (41%-100% damaged leaf area)” value ([1]; 25 g AI/ha) was 1. For the same compound, the “number of events … (16%-40% damaged leaf area)” value ([1]; 25 g AI/ha) was 0, the “number of events … (6%-15% damaged leaf area)” value ([1]; 25 g AI/ha) was 2 and the “number of events … (0%-5% damaged leaf area)” value ([1]; 25 g AI/ha) was 13. For the same compound, the “number of events … (41%-100% damaged leaf area)” value ([1]; 50 g AI/ha) was 0, the “number of events … (16%-40% damaged leaf area)” value ([1]; 50 g AI/ha) was 4 and the “number of events … (6%-15% damaged leaf area)” value ([1]; 50 g AI/ha) was 0. For the same compound, the “number of events … (0%-5% damaged leaf area)” value ([1]; 50 g AI/ha) was 0, the “number of events … (41%-100% damaged leaf area)” value ([1]; 75 g AI/ha) was 0 and the “number of events … (16%-40% damaged leaf area)” value ([1]; 75 g AI/ha) was 4. For the same compound, the “number of events … (6%-15% damaged leaf area)” value ([1]; 75 g AI/ha) was 0, the “number of events … (0%-5% damaged leaf area)” value ([1]; 75 g AI/ha) was 0 and the “herbicide tolerance” value ([2]; most soybean T1 plants expressing PfHPPD-Evo41, 25 g AI/ha) was “high tolerance”. The damaged leaf area ([2]; several soybean T1 plants expressing PfHPPD-Evo41, 50 g AI/ha) was “less than 5%”, the “number of events … (41%-100% damaged leaf area)” value ([2]; 6.25 g AI/ha) was 0 and the “number of events … (16%-40% damaged leaf area)” value ([2]; 6.25 g AI/ha) was 0. For the same compound, the “number of events … (6%-15% damaged leaf area)” value ([2]; 6.25 g AI/ha) was 0, the “number of events … (0%-5% damaged leaf area)” value ([2]; 6.25 g AI/ha) was 12 and the “number of events … (41%-100% damaged leaf area)” value ([2]; 25 g AI/ha) was 2. For the same compound, the “number of events … (16%-40% damaged leaf area)” value ([2]; 25 g AI/ha) was 8, the “number of events … (6%-15% damaged leaf area)” value ([2]; 25 g AI/ha) was 1 and the “number of events … (0%-5% damaged leaf area)” value ([2]; 25 g AI/ha) was 21. The “number of events … (41%-100% damaged leaf area)” value ([2]; 50 g AI/ha) was 0, the “number of events … (16%-40% damaged leaf area)” value ([2]; 50 g AI/ha) was 1 and the “number of events … (6%-15% damaged leaf area)” value ([2]; 50 g AI/ha) was 0. For the same compound, the “number of events … (0%-5% damaged leaf area)” value ([2]; 50 g AI/ha) was 3, the “number of events … (41%-100% damaged leaf area)” value ([2]; 75 g AI/ha) was 0 and the “number of events … (16%-40% damaged leaf area)” value ([2]; 75 g AI/ha) was 4. For the same compound, the “number of events … (6%-15% damaged leaf area)” value ([2]; 75 g AI/ha) was 0, the “number of events … (0%-5% damaged leaf area)” value ([2]; 75 g AI/ha) was 0 and the IC50 (FMP27 (SEQ ID No 17)) was 316 nM. It also gave an inhibition at 0.2 µM (FMP27 (SEQ ID No 17); 0.2 μM inhibitor, HGD assay) of 29%, an IC50 (FMP37 (SEQ ID No 9)) of 5010 nM and an inhibition at 0.2 µM (FMP37 (SEQ ID No 9); 0.2 μM inhibitor, HGD assay) of 0%. The IC50 [3] was 2000 nM, the inhibition at 0.2 µM ([3]; 0.2 μM inhibitor, HGD assay) was 8% and the “Efficacy (%) Amaranthus retroflexus” value (Amaranthus retroflexus) was 65%. For the same compound, the “bleaching of the total leaf area” value ([4]; 6.25 g of AI/ha) was 45%-50%, the damaged leaf area ([4]; 25 g of AI/ha) was 90-100% and the IC50 [5] was 200 nM. The “% inhibition at 0.2 μM” value ([5]; 0.2 μM inhibitor, HGD assay) was 50%, the “number of events … (41%-100% damaged leaf area)” value (wild type soybean Merlin; [8]) was 4 and the “number of events … (16%-40% damaged leaf area)” value (wild type soybean Merlin; [8]) was 0. The “number of events … (6%-15% damaged leaf area)” value (wild type soybean Merlin; [8]) was 0, the “number of events … (0%-5% damaged leaf area)” value (wild type soybean Merlin; [8]) was 0 and the “number of events … (41%-100% damaged leaf area)” value (wild type soybean Merlin; soybean Merlin, 25 g AI/ha) was 4. The “number of events … (16%-40% damaged leaf area)” value (wild type soybean Merlin; soybean Merlin, 25 g AI/ha) was 0, the “number of events … (6%-15% damaged leaf area)” value (wild type soybean Merlin; soybean Merlin, 25 g AI/ha) was 0 and the “number of events … (0%-5% damaged leaf area)” value (wild type soybean Merlin; soybean Merlin, 25 g AI/ha) was 0. The IC50 [6] was 251 nM, the “% inhibition at 0.2 μM” value ([6]; 0.2 μM inhibitor, HGD assay) was 40% and the IC50 [7] was 251 nM. For the same compound, the “% inhibition at 0.2 μM” value ([7]; 0.2 μM inhibitor, HGD assay) was 39%.
